Measured values published in patent US11028072B2, “2,4-diamino-6-ethylpyrimidine derivatives with antimalarial activities against Plasmodium falciparum” (National Science and Technology Development Agency, priority 2015, dated 2021).
Counter-ions that a name gives are not always drawn. Like-named read-outs stand apart in the source and are kept apart here.

How the values were obtained:
wild type (WT) pfDHFR = wild type (WT) pfDHFR (Plasmodium falciparum, UniProt P13922, N108S/R59C); experiment: Inhibition of wild type pfDHFR (Ki); format: biochemical
Sequence of wild type (WT) pfDHFR (P13922 whole entry R59C/N108S): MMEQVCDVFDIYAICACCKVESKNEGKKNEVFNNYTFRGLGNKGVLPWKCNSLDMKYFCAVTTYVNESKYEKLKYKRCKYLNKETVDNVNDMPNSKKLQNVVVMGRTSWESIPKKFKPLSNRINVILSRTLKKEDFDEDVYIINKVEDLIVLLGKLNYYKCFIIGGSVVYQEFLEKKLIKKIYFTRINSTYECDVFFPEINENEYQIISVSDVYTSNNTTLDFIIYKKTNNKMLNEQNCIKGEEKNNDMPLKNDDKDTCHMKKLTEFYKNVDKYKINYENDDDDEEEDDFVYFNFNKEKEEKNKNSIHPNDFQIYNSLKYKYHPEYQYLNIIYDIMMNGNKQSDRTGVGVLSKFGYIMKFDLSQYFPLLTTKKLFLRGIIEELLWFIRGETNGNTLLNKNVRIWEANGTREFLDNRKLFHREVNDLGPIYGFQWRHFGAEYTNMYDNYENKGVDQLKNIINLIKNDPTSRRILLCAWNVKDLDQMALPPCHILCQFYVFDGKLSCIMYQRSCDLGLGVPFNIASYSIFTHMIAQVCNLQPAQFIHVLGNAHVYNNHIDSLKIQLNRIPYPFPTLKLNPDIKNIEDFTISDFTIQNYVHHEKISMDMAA
Method: (§1) The synthesized 2,4-diamino-6-ethylpyrimdine derivatives as the hydrochloride salts were tested for the activities against Plasmodium falciparum (P. falciparum) according to the standard methods. These include the inhibition of dihydrofolate reductase (DHFR) enzymes of P. falciparum including, wild type (WT) and quadruple mutants (N51IC59RS108NI164L) (QM). The inhibition was expressed as inhibition constants (Ki) in nano molar (nM).

[1] = molecular target: quadruple mutant N51I + C59R + S108N + I164L (QM) pfDHFR (Plasmodium falciparum, UniProt P13922, I164L/N51I); experiment: Inhibition of quadruple mutant pfDHFR (Ki); format: biochemical
Sequence of quadruple mutant N51I + C59R + S108N + I164L (QM) pfDHFR (P13922 whole entry N51I/I164L): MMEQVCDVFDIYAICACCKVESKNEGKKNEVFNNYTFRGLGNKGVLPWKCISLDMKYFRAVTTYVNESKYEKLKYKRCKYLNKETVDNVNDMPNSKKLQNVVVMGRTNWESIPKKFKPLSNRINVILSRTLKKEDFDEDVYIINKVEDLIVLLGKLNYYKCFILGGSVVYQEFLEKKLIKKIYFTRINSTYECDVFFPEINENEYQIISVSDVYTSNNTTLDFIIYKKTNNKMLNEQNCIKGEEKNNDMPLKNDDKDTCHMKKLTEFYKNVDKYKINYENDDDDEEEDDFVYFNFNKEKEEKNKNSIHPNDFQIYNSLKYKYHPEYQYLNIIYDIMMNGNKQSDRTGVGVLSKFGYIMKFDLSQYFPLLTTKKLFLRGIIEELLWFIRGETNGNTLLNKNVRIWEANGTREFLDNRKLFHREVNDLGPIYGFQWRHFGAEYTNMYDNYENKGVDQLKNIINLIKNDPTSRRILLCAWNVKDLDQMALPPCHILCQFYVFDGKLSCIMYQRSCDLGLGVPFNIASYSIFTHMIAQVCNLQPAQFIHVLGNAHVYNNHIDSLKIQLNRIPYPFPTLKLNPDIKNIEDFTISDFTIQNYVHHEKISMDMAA
Method: as §1

[2] = molecular target: T1, Human dihydrofolate reductase (hDHFR) (Homo sapiens, UniProt P00374); experiment: Inhibition of human dihydrofolate reductase (Ki); format: biochemical; details: human DHFR; hydrochloride salts
T1 sequence (P00374 1-187): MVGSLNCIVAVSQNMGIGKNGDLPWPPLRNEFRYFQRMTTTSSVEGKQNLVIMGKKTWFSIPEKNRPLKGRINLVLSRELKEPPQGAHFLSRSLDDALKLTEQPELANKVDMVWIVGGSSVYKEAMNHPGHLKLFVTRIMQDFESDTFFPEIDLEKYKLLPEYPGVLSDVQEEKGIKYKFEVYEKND

[3] = system: P. falciparum TM4/8.2 (wild type); experiment: microbe, parasite or virus in culture; format: cell-based, Plasmodium falciparum; details: Plasmodium falciparum, read-out: IC50 P. falciparum TM4/8.2 (WT)
From the text: (§2) In Vitro Antimalarial Activites Against P. falciparum and Cytotoxicity Towards Mammalian Cells (Vero Cells)

[4] = system: P. falciparum V1/S (N51I + C59R + S108 + I164L); experiment: microbe, parasite or virus in culture; format: cell-based, Plasmodium falciparum; details: Plasmodium falciparum, read-out: IC50 P. falciparum V1/S
From the text: as §2

in vitro = details: African green monkey
From the text: as §2

[5] = in vitro, wild-type strain TM4/8.2
[6] = in vitro, quadruple mutant strain V1/S

SMILES	Ki (wild type (WT) pfDHFR)	Ki [1]	Ki [2]	IC50 [3, 5]	IC50 [4, 6]	IC50 (in vitro)	IC50 [3]	IC50 [4]	Ki hDHFR [2]	melting point
CCc1nc(N)nc(N)c1OCc1cc(-c2ccc(C(=O)O)cc2)no1 [Compound 44]	3.75 ± 0.31 nM	245 ± 34.6 nM	> 100000 nM	7770 ± 1470 nM	> 10000 nM	> 10000 nM	–	–	–	–
CCc1nc(N)nc(N)c1OCc1coc(-c2cccc(OCC(=O)OCc3ccccc3)c2)n1 [Compound 53]	0.83 ± 0.08 nM	45.5 ± 5.02 nM	681 ± 70.3 nM	1760 ± 670 nM	> 10000 nM	> 10000 nM	–	–	–	–
CCc1nc(N)nc(N)c1OCc1coc(-c2ccc(OCC(=O)O)cc2)n1 [Compound 57]	0.84 ± 0.08 nM	78 ± 6.44 nM	716 ± 78.3 nM	730 ± 170 nM	> 50000 nM	> 50000 nM	–	–	–	–
CCc1nc(N)nc(N)c1OCCCc1cc(-c2cccc(C(F)(F)F)c2)no1 [Compound 46]	0.39 ± 0.03 nM	1.74 ± 0.14 nM	26.12 ± 0.24 nM	–	–	10500 nM	130 ± 40 nM	17700 ± 4740 nM	–	–
CCc1nc(N)nc(N)c1OCCc1cn(Cc2ccc(O)cc2)nn1 [Compound 30]	8.86 ± 0.8 nM	756 ± 62.6 nM	–	12400 ± 4710 nM	> 50000 nM	> 50000 nM	–	–	High	–
CCc1nc(N)nc(N)c1OCc1csc(-c2cccc(OCC(=O)OCc3ccccc3)c2)n1 [Compound 63]	0.75 ± 0.1 nM	33.9 ± 1.85 nM	118 ± 14.8 nM	400 ± 70 nM	> 50000 nM	> 50000 nM	–	–	–	–
CCc1nc(N)nc(N)c1OCCc1cn(-c2ccc(C(=O)O)cc2)nn1 [Compound 22]	0.26 ± 0.04 nM	4.64 ± 0.6 nM	–	620 ± 180 nM	> 50000 nM	> 50000 nM	–	–	High	–
CCc1nc(N)nc(N)c1OCc1csc(-c2ccc(OCC(=O)OCc3ccccc3)cc2)n1 [Compound 72]	0.8 ± 0.09 nM	30.3 ± 5.63 nM	140 ± 22 nM	230 ± 30 nM	> 50000 nM	> 50000 nM	–	–	–	–
CCc1nc(N)nc(N)c1-c1cn(CCOc2ccc(C(=O)OC)cc2)nn1 [Compound 10]	1.01 ± 0.04 nM	6.96 ± 1.12 nM	–	880 ± 360 nM	21000 ± 4490 nM	38900 ± 2140 nM	–	–	High	–
CCc1nc(N)nc(N)c1OCc1csc(-c2ccc(C(=O)OC)cc2)n1 [Compound 74]	0.65 ± 0.06 nM	34 ± 5.42 nM	447 ± 110 nM	–	–	> 50000 nM	400 ± 130 nM	15900 ± 2110 nM	–	–
CCc1nc(N)nc(N)c1OCc1cn(-c2ccc(C(=O)O)cc2)nn1 [Compound 19]	7.79 ± 1.33 nM	671 ± 27.2 nM	–	> 10000 nM	> 10000 nM	> 10000 nM	–	–	High	–
CCc1nc(N)nc(N)c1OCc1coc(-c2cccc(OCC(=O)O)c2)n1 [Compound 54]	1.19 ± 0.15 nM	261 ± 19 nM	540 ± 25.2 nM	3820 ± 210 nM	> 50000 nM	> 50000 nM	–	–	–	–
CCc1nc(N)nc(N)c1OCc1coc(-c2ccc(Cl)cc2)n1 [Compound 55]	1.14 ± 0.17 nM	32.9 ± 4.13 nM	> 100000 nM	870 ± 110 nM	> 25000 nM	> 25000 nM	–	–	–	–
CCc1nc(N)nc(N)c1-c1cn(CCCc2ccccc2)nn1 [Compound 8]	2.82 ± 0.1 nM	49.8 ± 1.89 nM	3680 ± 480 nM	–	–	> 50000 nM	5580 ± 670 nM	32300 ± 3060 nM	–	–
CCc1nc(N)nc(N)c1OCc1cc(-c2ccc(Br)cc2)no1 [Compound 36]	1.03 ± 0.2 nM	64.6 ± 1.16 nM	1350 ± 104 nM	2860 ± 560 nM	17500 ± 2960 nM	> 25000 nM	–	–	–	–
CCc1nc(N)nc(N)c1-c1cn(Cc2ccccc2)nn1 [Compound 3]	11.3 ± 0.81 nM	13.9 ± 1.98 nM	3140 ± 242 nM	–	–	> 50000 nM	3570 ± 1250 nM	19900 ± 7030 nM	–	–
CCc1nc(N)nc(N)c1OCc1cc(-c2ccc(C(F)(F)F)cc2)no1 [Compound 41]	4.29 ± 0.31 nM	–	> 100000 nM	6780 ± 2210 nM	> 10000 nM	> 10000 nM	–	–	–	–
CCc1nc(N)nc(N)c1OCCCc1cn(-c2ccc(C(=O)O)cc2)nn1 (as salt: hydrochloride) [Compound 25]	–	–	–	–	–	–	–	–	–	239.5 to 241.5 °C
CCc1nc(N)nc(N)c1OCc1csc(-c2ccc(OC)cc2)n1 (as salt: hydrochloride) [Compound 68]	–	–	–	–	–	–	–	–	–	228 to 229 °C
CCc1nc(N)nc(N)c1OCCc1cn(-c2ccc(C(=O)OC)cc2)nn1 (as salt: hydrochloride) [Compound 21]	–	–	–	–	–	–	–	–	–	190 to 192 °C
CCc1nc(N)nc(N)c1OCc1cc(-c2ccc(C(=O)O)cc2)no1 (as salt: hydrochloride) [Compound 44]	–	–	–	–	–	–	–	–	–	242 to 244 °C
CCc1nc(N)nc(N)c1OCc1cn(-c2ccc(C(=O)O)cc2)nn1 (as salt: hydrochloride) [Compound 19]	–	–	–	–	–	–	–	–	–	270.8 to 272 °C
